Measured values reported in ChEMBL document CHEMBL1201862, “PubChem BioAssay data set” (2004).
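Protocol summary: plate cells (96-well), add compound at 5 concentrations, incubate 48 h, interpolate endpoints linearly. GI50 = concentration required for 50% inhibition of growth.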 The source made the active and inactive calls. Cut-off read from the data, not from the text of the source: active = GI50 up to about 1.1 µM and inactive = higher.

What was measured:
Assay in all cases: NCI tumour cell line growth inhibition, 48 h
SK-MEL-5 = system: SK-MEL-5
HT-29 = system: HT-29
OVCAR-3 = system: OVCAR-3
UACC-257 = system: UACC-257
KM12 = system: KM12
SK-MEL-2 = system: SK-MEL-2
LOX IMVI = system: LOX IMVI
ACHN = system: ACHN
SN12C = system: SN12C
HOP-92 = system: HOP-92
EKVX = system: EKVX
A549 = system: A549
NCI-H460 = system: NCI-H460
RXF 393 = system: RXF 393
SF-295 = system: SF-295
U-251 = system: U-251
HOP-62 = system: HOP-62

Measured: GI50

CC1(c2ccc(F)cc2)C2C(=O)NC(=O)C1C(=O)NC2=O (centres undefined)
inactive: SK-MEL-5 > 100 µM | HT-29 > 100 µM | OVCAR-3 > 100 µM | UACC-257 > 100 µM | KM12 > 100 µM | SK-MEL-2 > 100 µM | LOX IMVI > 100 µM | ACHN > 100 µM | SN12C > 100 µM | HOP-92 > 100 µM | EKVX > 100 µM | A549 > 100 µM | NCI-H460 > 100 µM | RXF 393 > 100 µM | SF-295 > 100 µM

COC(=O)CCC(NC(=S)N/N=C(\C)c1cnc2ccccc2n1)C(=O)OC (centres undefined)
inactive: SK-MEL-5 21.2 µM | HT-29 14.2 µM | OVCAR-3 42.8 µM | UACC-257 49.5 µM | KM12 26 µM | SK-MEL-2 56.8 µM | LOX IMVI 23.2 µM | ACHN 20.6 µM | SN12C 60.1 µM | U-251 43.2 µM | EKVX 12.6 µM | A549 34.8 µM | NCI-H460 45.9 µM | RXF 393 30.2 µM | SF-295 49.8 µM | HOP-62 45.7 µM

Cc1ccc(Oc2ccc(C)cc2N)cc1
inactive: SK-MEL-5 44.1 µM | HT-29 52.5 µM | OVCAR-3 36 µM | UACC-257 80.9 µM | KM12 > 100 µM | SK-MEL-2 > 100 µM | LOX IMVI > 100 µM | SN12C 97.7 µM | HOP-92 32.3 µM | U-251 30.5 µM | EKVX 71 µM | A549 > 100 µM | NCI-H460 > 100 µM | RXF 393 31.5 µM | SF-295 96.4 µM | HOP-62 > 100 µM

CC1=NN(C(=O)Cc2ccccc2)C(=O)/C1=C\c1ccco1
inactive: SK-MEL-5 > 100 µM | HT-29 > 100 µM | OVCAR-3 > 100 µM | UACC-257 > 100 µM | KM12 > 100 µM | SK-MEL-2 > 100 µM | LOX IMVI > 100 µM | ACHN > 100 µM | SN12C > 100 µM | EKVX > 100 µM | A549 > 100 µM | SF-295 > 100 µM | HOP-62 > 100 µM

COc1ccc(C(=O)Cc2c(C(=O)c3ccccc3)c3ccccc3n2C(=O)c2ccccc2)cc1
inactive: SK-MEL-5 17.7 µM | HT-29 > 100 µM | OVCAR-3 37.7 µM | UACC-257 > 100 µM | KM12 53.8 µM | SK-MEL-2 > 100 µM | ACHN 53 µM | HOP-92 25.2 µM | U-251 78.2 µM | A549 35.7 µM | NCI-H460 26.4 µM | SF-295 31.3 µM | HOP-62 > 100 µM

COCCOCOC(CCCCO)c1cc(C)c(O[Si](C)(C)C(C)(C)C)c(C)c1 (centres undefined)
inactive: SK-MEL-5 2.64 µM | OVCAR-3 5.83 µM | UACC-257 3.01 µM | KM12 4.59 µM | SK-MEL-2 8.89 µM | LOX IMVI 5.66 µM | ACHN 7.62 µM | SN12C 2.69 µM | U-251 10.8 µM | EKVX 8.17 µM | A549 3.68 µM | NCI-H460 5.24 µM | RXF 393 2.26 µM | SF-295 3.97 µM | HOP-62 10.8 µM

BrC1(Br)C2/C=C\CCCCC21 (centres undefined)
inactive: HT-29 > 100 µM | UACC-257 > 100 µM | KM12 > 100 µM | SK-MEL-2 > 100 µM | LOX IMVI > 100 µM | ACHN > 100 µM | SN12C > 100 µM | HOP-92 42.3 µM | U-251 > 100 µM | EKVX > 100 µM | A549 > 100 µM | NCI-H460 > 100 µM | RXF 393 > 100 µM | SF-295 > 100 µM | HOP-62 > 100 µM

Cc1cc(N(CCC#N)CCC#N)ccc1/C=C1N=C(/C=C/c2ccccc2)N(c2ccc(S(N)(=O)=O)cc2)C\1=O
inactive: SK-MEL-5 > 100 µM | HT-29 > 100 µM | OVCAR-3 > 100 µM | UACC-257 > 100 µM | KM12 > 100 µM | SK-MEL-2 > 100 µM | LOX IMVI > 100 µM | ACHN > 100 µM | SN12C > 100 µM | HOP-92 > 100 µM | U-251 > 100 µM | A549 > 100 µM | NCI-H460 > 100 µM | SF-295 > 100 µM | HOP-62 > 100 µM

CC1C2=CC=C(O2)C(C)(C)C2=CC=C(O2)C(C)(C)C2=CC=C(O2)C(C)(C)C2=CC=C1O2
inactive: HT-29 > 100 µM | UACC-257 > 100 µM | KM12 > 100 µM | SK-MEL-2 > 100 µM | LOX IMVI > 100 µM | ACHN > 100 µM | SN12C > 100 µM | HOP-92 18.9 µM | U-251 > 100 µM | EKVX > 100 µM | A549 > 100 µM | NCI-H460 > 100 µM | RXF 393 > 100 µM | SF-295 > 100 µM | HOP-62 > 100 µM

O=[N+]([O-])c1cccc(C2=NOC3C4CCC(C4)C23)c1 (centres undefined)
inactive: SK-MEL-5 > 100 µM | HT-29 > 100 µM | OVCAR-3 > 100 µM | UACC-257 > 100 µM | KM12 > 100 µM | SK-MEL-2 > 100 µM | ACHN > 100 µM | SN12C > 100 µM | HOP-92 > 100 µM | U-251 > 100 µM | A549 > 100 µM | NCI-H460 > 100 µM | SF-295 > 100 µM | HOP-62 > 100 µM

Oc1cc(-c2ccccn2)nc2cccc(F)c12
inactive: SK-MEL-5 61.4 µM | HT-29 > 100 µM | OVCAR-3 > 100 µM | UACC-257 > 100 µM | KM12 > 100 µM | LOX IMVI 89.9 µM | ACHN > 100 µM | SN12C > 100 µM | HOP-92 > 100 µM | EKVX > 100 µM | A549 > 100 µM | NCI-H460 > 100 µM | RXF 393 > 100 µM | SF-295 > 100 µM | HOP-62 > 100 µM

C#CCN(N=O)C(=O)NC(CCCCNC(=O)OCc1ccccc1)C(=O)OCc1ccccc1 (centres undefined)
inactive: HT-29 21.2 µM | OVCAR-3 36.1 µM | UACC-257 28.1 µM | KM12 77.3 µM | SK-MEL-2 37.8 µM | LOX IMVI 25.5 µM | ACHN 55.5 µM | SN12C 28.4 µM | HOP-92 15.7 µM | U-251 27.9 µM | EKVX 22.7 µM | A549 76.2 µM | NCI-H460 61 µM | RXF 393 46.7 µM | SF-295 55.5 µM | HOP-62 > 100 µM

CCCN1CC=CCC1
inactive: SK-MEL-5 > 100 µM | HT-29 > 100 µM | OVCAR-3 > 100 µM | UACC-257 > 100 µM | KM12 > 100 µM | SK-MEL-2 > 100 µM | LOX IMVI > 100 µM | ACHN > 100 µM | SN12C > 100 µM | HOP-92 > 100 µM | U-251 > 100 µM | EKVX > 100 µM | A549 > 100 µM | NCI-H460 > 100 µM | RXF 393 > 100 µM | SF-295 > 100 µM
